Experimental data: ChEMBL document CHEMBL1201862, “PubChem BioAssay data set” (2004)
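Following 48 hours of exposure in 96-well plates, responses at five concentrations were used to interpolate endpoints linearly. GI50 = concentration required for 50% inhibition of growth.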 Activity calls are given as the source filed them. Rule as the data show it: active = GI50 up to about 1.1 µM and inactive = higher.

Key:
Assay in all cases: growth of human tumour cells (NCI), 48 h
ACHN = test system: ACHN
KM-20L2 = test system: KM-20L2
DLD-1 = test system: DLD-1
OVCAR-3 = test system: OVCAR-3
SW-620 = test system: SW-620
SF-268 = test system: SF-268
SNB-78 = test system: SNB-78
LXFL 529 = test system: LXFL 529
SK-OV-3 = test system: SK-OV-3
OVCAR-8 = test system: OVCAR-8
SNB-19 = test system: SNB-19
786-0 = test system: 786-0
NCI-H522 = test system: NCI-H522
NCI-H226 = test system: NCI-H226
OVCAR-5 = test system: OVCAR-5
M14 = test system: M14
LOX IMVI = test system: LOX IMVI
NCI-H23 = test system: NCI-H23
HCC 2998 = test system: HCC 2998
NCI-H460 = test system: NCI-H460
UACC-257 = test system: UACC-257
COLO 205 = test system: COLO 205
RXF 393 = test system: RXF 393
CCRF-CEM = test system: CCRF-CEM
Malme-3M = test system: Malme-3M
MOLT-4 = test system: MOLT-4
UACC-62 = test system: UACC-62
TK-10 = test system: TK-10
EKVX = test system: EKVX
HCT-116 = test system: HCT-116
IGROV-1 = test system: IGROV-1
HT-29 = test system: HT-29
DMS-273 = test system: DMS-273
HOP-92 = test system: HOP-92
SNB-75 = test system: SNB-75
K562 = test system: K562
HOP-62 = test system: HOP-62
RXF 631 = test system: RXF 631
SF-295 = test system: SF-295
U-251 = test system: U-251
SN12C = test system: SN12C
SK-MEL-2 = test system: SK-MEL-2
DMS-114 = test system: DMS-114
SF-539 = test system: SF-539
OVCAR-4 = test system: OVCAR-4
RPMI-8226 = test system: RPMI-8226
CAKI-1 = test system: CAKI-1
A498 = test system: A498
HCT-15 = test system: HCT-15
M19-MEL = test system: M19-MEL
SK-MEL-28 = test system: SK-MEL-28
SK-MEL-5 = test system: SK-MEL-5
KM12 = test system: KM12
A549 = test system: A549
UO-31 = test system: UO-31
HL-60 = test system: HL-60
SR = test system: SR
XF498 = test system: XF498

CNC(=O)NCCCC(NC(C)=O)C(=O)NCc1ccccc1 (stereo unspecified)
GI50 (ACHN): > 100 µM (inactive) | GI50 (KM-20L2): > 100 µM (inactive) | GI50 (DLD-1): > 100 µM (inactive) | GI50 (OVCAR-3): > 100 µM (inactive) | GI50 (SW-620): > 100 µM (inactive) | GI50 (SF-268): > 100 µM (inactive) | GI50 (SNB-78): > 100 µM (inactive) | GI50 (LXFL 529): > 100 µM (inactive) | GI50 (SK-OV-3): > 100 µM (inactive) | GI50 (OVCAR-8): > 100 µM (inactive) | GI50 (SNB-19): > 100 µM (inactive) | GI50 (786-0): > 100 µM (inactive) | GI50 (NCI-H522): > 100 µM (inactive) | GI50 (NCI-H226): > 100 µM (inactive) | GI50 (OVCAR-5): > 100 µM (inactive) | GI50 (M14): > 100 µM (inactive) | GI50 (LOX IMVI): > 100 µM (inactive) | GI50 (NCI-H23): > 100 µM (inactive) | GI50 (HCC 2998): > 100 µM (inactive) | GI50 (NCI-H460): > 100 µM (inactive) | GI50 (UACC-257): > 100 µM (inactive) | GI50 (COLO 205): > 100 µM (inactive) | GI50 (RXF 393): > 100 µM (inactive) | GI50 (CCRF-CEM): > 100 µM (inactive) | GI50 (Malme-3M): > 100 µM (inactive) | GI50 (MOLT-4): > 100 µM (inactive) | GI50 (UACC-62): > 100 µM (inactive) | GI50 (TK-10): > 100 µM (inactive) | GI50 (EKVX): > 100 µM (inactive) | GI50 (HCT-116): > 100 µM (inactive) | GI50 (IGROV-1): > 100 µM (inactive) | GI50 (HT-29): > 100 µM (inactive) | GI50 (DMS-273): > 100 µM (inactive) | GI50 (HOP-92): 92.9 µM (inactive) | GI50 (SNB-75): 42.2 µM (inactive) | GI50 (K562): > 100 µM (inactive) | GI50 (HOP-62): > 100 µM (inactive) | GI50 (RXF 631): > 100 µM (inactive) | GI50 (SF-295): > 100 µM (inactive) | GI50 (U-251): > 100 µM (inactive) | GI50 (SN12C): > 100 µM (inactive) | GI50 (SK-MEL-2): > 100 µM (inactive) | GI50 (DMS-114): > 100 µM (inactive) | GI50 (SF-539): > 100 µM (inactive) | GI50 (OVCAR-4): > 100 µM (inactive) | GI50 (RPMI-8226): > 100 µM (inactive) | GI50 (CAKI-1): > 100 µM (inactive) | GI50 (A498): > 100 µM (inactive) | GI50 (HCT-15): > 100 µM | GI50 (M19-MEL): > 100 µM (inactive) | GI50 (SK-MEL-28): > 100 µM (inactive) | GI50 (SK-MEL-5): > 100 µM (inactive) | GI50 (KM12): > 100 µM (inactive) | GI50 (A549): > 100 µM (inactive) | GI50 (UO-31): > 100 µM (inactive)

O=C(O)c1oc2cccc3c2c1CCC3
GI50 (ACHN): > 100 µM (inactive) | GI50 (KM-20L2): > 10 µM (inactive) | GI50 (DLD-1): > 100 µM (inactive) | GI50 (OVCAR-3): > 100 µM (inactive) | GI50 (SW-620): > 100 µM (inactive) | GI50 (SF-268): > 100 µM (inactive) | GI50 (SNB-78): > 100 µM (inactive) | GI50 (LXFL 529): > 100 µM (inactive) | GI50 (SK-OV-3): > 100 µM (inactive) | GI50 (OVCAR-8): > 100 µM (inactive) | GI50 (SNB-19): > 100 µM (inactive) | GI50 (786-0): > 100 µM (inactive) | GI50 (NCI-H522): > 100 µM (inactive) | GI50 (OVCAR-5): > 100 µM (inactive) | GI50 (M14): > 100 µM (inactive) | GI50 (HL-60): > 100 µM (inactive) | GI50 (LOX IMVI): > 100 µM (inactive) | GI50 (NCI-H23): > 100 µM (inactive) | GI50 (HCC 2998): > 100 µM (inactive) | GI50 (NCI-H460): > 100 µM (inactive) | GI50 (UACC-257): > 100 µM (inactive) | GI50 (COLO 205): > 100 µM (inactive) | GI50 (RXF 393): > 100 µM (inactive) | GI50 (CCRF-CEM): > 100 µM (inactive) | GI50 (Malme-3M): > 100 µM (inactive) | GI50 (MOLT-4): > 100 µM (inactive) | GI50 (UACC-62): 41.7 µM (inactive) | GI50 (SR): > 100 µM (inactive) | GI50 (TK-10): > 100 µM (inactive) | GI50 (EKVX): > 100 µM (inactive) | GI50 (HCT-116): > 100 µM (inactive) | GI50 (IGROV-1): > 100 µM (inactive) | GI50 (HT-29): > 100 µM (inactive) | GI50 (DMS-273): > 100 µM (inactive) | GI50 (HOP-92): > 100 µM (inactive) | GI50 (SNB-75): 99.3 µM (inactive) | GI50 (K562): > 100 µM (inactive) | GI50 (HOP-62): > 100 µM (inactive) | GI50 (RXF 631): > 100 µM (inactive) | GI50 (SF-295): > 100 µM (inactive) | GI50 (U-251): > 100 µM (inactive) | GI50 (SN12C): > 100 µM (inactive) | GI50 (SK-MEL-2): > 100 µM (inactive) | GI50 (DMS-114): > 100 µM (inactive) | GI50 (SF-539): > 100 µM (inactive) | GI50 (OVCAR-4): > 100 µM (inactive) | GI50 (RPMI-8226): > 100 µM (inactive) | GI50 (XF498): > 100 µM (inactive) | GI50 (A498): > 100 µM (inactive) | GI50 (HCT-15): > 100 µM | GI50 (M19-MEL): > 100 µM (inactive) | GI50 (SK-MEL-28): > 100 µM (inactive) | GI50 (SK-MEL-5): > 100 µM (inactive) | GI50 (KM12): > 100 µM (inactive) | GI50 (A549): > 100 µM (inactive) | GI50 (UO-31): 12.8 µM (inactive)
